Source: ChEMBL document CHEMBL3286148, “Aminoazabenzimidazoles, a novel class of orally active antimalarial agents” (J Med Chem, 2014)

Tested on: Plasmodium falciparum
Assay: microbe, parasite or virus in culture
Conditions: K1, 72 h

Q: With `Nc1nc(C2CC2)cn1CC(O)c1ccc(Cl)cc1Cl` (racemic) as the compound, how does the IC50 read?
A: 70 nM

Q: Which IC50 does the source give for `Cc1cn(CC(O)c2ccc(Cl)cc2Cl)c(N)n1` (racemic) here?
A: 250 nM

Q: With `Nc1nc2ccc(C3CC3)nc2n1CC(O)c1ccc(Cl)cc1Cl` (racemic) as the compound, how does the IC50 read?
A: 22 nM

Q: Which IC50 does the source give for `CS(=O)(=O)c1ccc2nc(N)n(CC(O)c3cccc(Cl)c3Cl)c2c1` (racemic) here?
A: > 2000 nM

Q: Which IC50 does the source give for `Nc1nccn1CC(O)c1ccc(Cl)cc1F` (racemic) here?
A: > 2000 nM

Q: For `Nc1nccn1CC(O)c1cccc(Cl)c1Cl` (racemic), which IC50 is on record?
A: 230 nM

Q: For `NC1=Nc2ccccc2CN1CC(O)c1ccc(Cl)cc1Cl` (racemic), which IC50 is on record?
A: 25 nM

Q: For `Nc1nc2ccc(NCC(F)(F)F)nc2n1CC(O)c1ccc(Cl)cc1Cl` (racemic), which IC50 is on record?
A: 14 nM

Tested on: not listed separately
Assay: Clearance in human liver microsomes
Assay type: ADME
Conditions: read-out: CLH

Q: With `Nc1nc2ccc(C3CC3)nc2n1CC(O)c1ccc(Cl)cc1Cl` (racemic) as the compound, how does the microsomal CLint read?
A: 47 µL/min/mg

Q: With `CS(=O)(=O)c1ccc2nc(N)n(CC(O)c3cccc(Cl)c3Cl)c2c1` (racemic) as the compound, how does the microsomal CLint read?
A: 68 µL/min/mg

Q: Which microsomal CLint does the source give for `Nc1nc2ccc(NCC(F)(F)F)nc2n1CC(O)c1ccc(Cl)cc1Cl` (racemic) here?
A: 17 µL/min/mg

Tested on: not listed separately
Assay: Clearance in rat hepatocytes assessed per 1E6 cells
Assay type: ADME, cell-based, Hepatocyte
Conditions: read-out: CLH

Q: With `Nc1nc2ccc(C3CC3)nc2n1CC(O)c1ccc(Cl)cc1Cl` (racemic) as the compound, how does the hepatocyte CLint read?
A: 94 µL/min/1e6 cells

Q: Which hepatocyte CLint does the source give for `CS(=O)(=O)c1ccc2nc(N)n(CC(O)c3cccc(Cl)c3Cl)c2c1` (racemic) here?
A: 44 µL/min/1e6 cells

Q: Which hepatocyte CLint does the source give for `Nc1nc2ccc(NCC(F)(F)F)nc2n1CC(O)c1ccc(Cl)cc1Cl` (racemic) here?
A: 198 µL/min/1e6 cells

Tested on: Plasmodium falciparum
Assay: microbe, parasite or virus in culture
Conditions: NF54, 72 h

Q: For `Nc1nc(C2CC2)cn1CC(O)c1ccc(Cl)cc1Cl` (racemic), which IC50 is on record?
A: 120 nM

Q: Which IC50 does the source give for `Cc1cn(CC(O)c2ccc(Cl)cc2Cl)c(N)n1` (racemic) here?
A: 380 nM

Q: With `Nc1nc2ccc(C3CC3)nc2n1CC(O)c1ccc(Cl)cc1Cl` (racemic) as the compound, how does the IC50 read?
A: 96 nM

Q: Which IC50 does the source give for `CS(=O)(=O)c1ccc2nc(N)n(CC(O)c3cccc(Cl)c3Cl)c2c1` (racemic) here?
A: > 2000 nM

Q: For `Nc1nccn1CC(O)c1ccc(Cl)cc1F` (racemic), which IC50 is on record?
A: > 2000 nM

Q: With `Nc1nccn1CC(O)c1cccc(Cl)c1Cl` (racemic) as the compound, how does the IC50 read?
A: 350 nM

Q: For `NC1=Nc2ccccc2CN1CC(O)c1ccc(Cl)cc1Cl` (racemic), which IC50 is on record?
A: 177 nM

Q: For `Nc1nc2ccc(NCC(F)(F)F)nc2n1CC(O)c1ccc(Cl)cc1Cl` (racemic), which IC50 is on record?
A: 40 nM

Tested on: not listed separately
Assay: Selectivity index, ratio of IC50 for human A549 cells to IC50 for Plasmodium falciparum
Assay type: toxicity, cell-based
Conditions: read-out: Ratio IC50

Q: For `Nc1nc(C2CC2)cn1CC(O)c1ccc(Cl)cc1Cl` (racemic), which selectivity ratio is on record?
A: 241

Q: With `Nc1nc2ccc(C3CC3)nc2n1CC(O)c1ccc(Cl)cc1Cl` (racemic) as the compound, how does the selectivity ratio read?
A: > 260

Q: With `CS(=O)(=O)c1ccc2nc(N)n(CC(O)c3cccc(Cl)c3Cl)c2c1` (racemic) as the compound, how does the selectivity ratio read?
A: > 50

Q: For `Nc1nccn1CC(O)c1ccc(Cl)cc1F` (racemic), which selectivity ratio is on record?
A: > 50

Q: For `NC1=Nc2ccccc2CN1CC(O)c1ccc(Cl)cc1Cl` (racemic), which selectivity ratio is on record?
A: 141

Q: With `Nc1nc2ccc(NCC(F)(F)F)nc2n1CC(O)c1ccc(Cl)cc1Cl` (racemic) as the compound, how does the selectivity ratio read?
A: 375

Target: Voltage-gated inwardly rectifying potassium channel KCNH2 (Homo sapiens, UniProt Q12809)
Assay: Inhibition of human ERG
Conditions: not given

Sequence of Voltage-gated inwardly rectifying potassium channel KCNH2 (Q12809 whole entry): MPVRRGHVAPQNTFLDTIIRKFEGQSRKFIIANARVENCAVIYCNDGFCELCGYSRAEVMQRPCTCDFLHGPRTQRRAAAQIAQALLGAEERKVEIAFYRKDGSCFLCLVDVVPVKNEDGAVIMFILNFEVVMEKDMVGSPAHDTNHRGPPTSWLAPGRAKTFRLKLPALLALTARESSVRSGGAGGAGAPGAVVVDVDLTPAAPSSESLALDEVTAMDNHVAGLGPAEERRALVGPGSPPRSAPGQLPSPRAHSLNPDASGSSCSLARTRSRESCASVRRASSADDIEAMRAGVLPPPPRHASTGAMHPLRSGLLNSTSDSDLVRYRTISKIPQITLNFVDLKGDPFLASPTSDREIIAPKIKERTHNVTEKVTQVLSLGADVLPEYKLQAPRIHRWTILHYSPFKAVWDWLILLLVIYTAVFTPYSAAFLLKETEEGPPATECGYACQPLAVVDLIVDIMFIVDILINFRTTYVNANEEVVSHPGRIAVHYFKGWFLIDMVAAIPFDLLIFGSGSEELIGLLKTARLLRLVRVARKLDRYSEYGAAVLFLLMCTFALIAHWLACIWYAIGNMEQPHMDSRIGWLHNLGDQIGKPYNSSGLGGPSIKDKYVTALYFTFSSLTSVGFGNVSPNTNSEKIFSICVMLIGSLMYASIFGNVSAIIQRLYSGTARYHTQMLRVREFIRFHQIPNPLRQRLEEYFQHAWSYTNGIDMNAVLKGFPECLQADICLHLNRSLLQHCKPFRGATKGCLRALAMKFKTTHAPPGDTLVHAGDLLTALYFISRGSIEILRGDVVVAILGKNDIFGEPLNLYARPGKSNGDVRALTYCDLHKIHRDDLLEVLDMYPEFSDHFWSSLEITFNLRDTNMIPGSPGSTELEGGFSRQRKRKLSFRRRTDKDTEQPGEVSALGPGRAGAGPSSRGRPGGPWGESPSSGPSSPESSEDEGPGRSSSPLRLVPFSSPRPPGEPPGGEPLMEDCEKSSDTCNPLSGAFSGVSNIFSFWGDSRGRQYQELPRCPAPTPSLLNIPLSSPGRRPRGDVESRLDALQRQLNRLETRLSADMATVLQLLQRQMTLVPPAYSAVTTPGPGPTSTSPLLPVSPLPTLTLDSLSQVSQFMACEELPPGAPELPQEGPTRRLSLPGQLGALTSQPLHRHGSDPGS

Q: With `Nc1nc(C2CC2)cn1CC(O)c1ccc(Cl)cc1Cl` (racemic) as the compound, how does the IC50 read?
A: 4500 nM

Q: Which IC50 does the source give for `CS(=O)(=O)c1ccc2nc(N)n(CC(O)c3cccc(Cl)c3Cl)c2c1` (racemic) here?
A: > 33300 nM

Q: Which IC50 does the source give for `Nc1nccn1CC(O)c1ccc(Cl)cc1F` (racemic) here?
A: 60000 nM

Q: For `Nc1nc2ccc(NCC(F)(F)F)nc2n1CC(O)c1ccc(Cl)cc1Cl` (racemic), which IC50 is on record?
A: 3500 nM

Tested on: not listed separately
Assay: Clearance in mouse liver microsomes
Assay type: ADME
Conditions: read-out: CLH

Q: For `Nc1nc2ccc(C3CC3)nc2n1CC(O)c1ccc(Cl)cc1Cl` (racemic), which microsomal CLint is on record?
A: > 130 µL/min/mg

Q: With `Nc1nc2ccc(NCC(F)(F)F)nc2n1CC(O)c1ccc(Cl)cc1Cl` (racemic) as the compound, how does the microsomal CLint read?
A: 87 µL/min/mg
